Experimental findings from PMC7211193, “Evaluation of absorption, distribution, metabolism, and excretion of [^14C]-rucaparib, a poly(ADP-ribose) polymerase inhibitor, in patients with advanced solid tumors” (Investigational New Drugs, 2019) are described below.

What all share (format): in vivo, human
The nature of data set [1]: Metabolite profiling in pooled feces (LC-MS-Radiomatic). The settings on record: for Amount detected in feces: pooled fecal homogenates, mainly observed by MS only. As for the experimental part:
For each patient, homogenized feces samples from different collection intervals were pooled in proportion to their sample weight in order to obtain a pooled sample covering 90% of the TRA recovered in feces. Aliquots of the pooled fecal samples were extracted at least twice with acetonitrile. The obtained supernatant was evaporated. The dried residues were reconstituted in 40% DMSO in water to obtain maximum recovery. An aliquot of the supernatant was analyzed for TRA to determine extraction efficiency, and the mean recovery was ≈75%. Aliquots of the supernatants were injected into the HPLC coupled to UV and radioactive detectors to obtain metabolite profiles. The sample supernatants were also analyzed using LC-MS to identify metabolites.
(§1) Metabolite profiling and identification were performed on an LC system (Agilent) coupled to an LTQ Orbitrap mass spectrometer (Thermo Electron, Waltham, MA, USA) in combination with offline TopCount (LC-MS-TopCount) or online Radiomatic 625TR (LC-MS-Radiomatic; PerkinElmer). Proposed structures of the metabolites were based on accurate mass (<5 ppm) and comparison of mass spectral data of parent compound rucaparib and metabolite standard M324. The Radiomatic 625TR flow detector, equipped with a 200 μL flow cell, was operated using scintillation cocktail (Ultima-Flo M) delivered at a flow rate of 1 mL/min. Chromatography was done using a Phenomenex (Torrance, CA, USA) Luna Phenyl-Hexyl column (250 × 2 mm, 5 μm, 100 Å) at ambient temperature during the sample analysis. The mobile phase was (A) 0.05% TFA in water and (B) 0.05% TFA in acetonitrile, with a 0.2 mL/min flow rate. The gradient was as follows: 5% B over 2.1 min, to 20% B in 1.0 min, to 35% B in 16.9 min, isocratic at 35% B for 5 min, to 95% B over 5 min, and reduced to 5% B over 1 min, with total run time 45 min.
(§2) The abundance of unchanged rucaparib and metabolites identified in plasma, urine, and feces was determined as a percentage of the TRA in the analyzed samples. Percentage of the administered dose of rucaparib and metabolites was calculated in urine and feces (formula A). The concentration of rucaparib and its metabolites in plasma (ng Eq h/mL) was calculated based on the specific activity, TRA, and percentage of peaks (formula B). The AUC0-24h value of rucaparib and its major metabolite M324 in plasma was calculated using both Hamilton method (formula C) and linear trapezoidal method (formula D). • (A) %Doseofmetabolite=TRAinurineorfeces(dpm)÷TRAinadministereddose(dpm)×%metabolitesinmatrix • (B) Metaboliteconcentrationsinplasma(ngEq/mL)=TRAinplasma(dpm/mL)specificactivity(ngEq/dpm)×%metabolitesinthematrix • (C) Hamiltonmethod:AUC0−24h(ngEqh/mL)=concentrationinHamilton(AUC0−24h)pooledplasma(ngEq/mL)×24(h) • (D) Lineartrapezoidalmethod:AUC0−24h(ngEqh/mL)=C1h/2×1h+C1h+C4h/2×(4h−1h)+C4h+C8h/2×(8h−4h)+C8h+C24h/2×(24h−8h)

The nature of data set [2]: Metabolite identification by LC-MS/MS in plasma, urine and feces. Conditions: F feces, P plasma, U urine. The procedure:
as §1
The LTQ Orbitrap mass spectrometer was equipped with an electrospray ionization interface and operated in positive ionization mode for metabolite profiling and identification. Mass spectra were acquired in full scan (MS) (m/z 150–1500) and data-dependent scan modes. Mass spectrometer parameter settings were: spray voltage, +5.0 kV; capillary temperature, 350 °C; sheath gas, 80 (arbitrary unit); auxiliary gas, 30 (arbitrary unit); activation Q, 0.25; activation time, 30 msec; resolution, 7500; and collision energy, 35 eV.
The structures of the metabolites were identified by LC-MS/MS based on comparisons of mass spectral fragmentation patterns with those produced by the parent compound. Further confirmation of the identities of the metabolites was based on the elemental composition determined from accurate mass analyses using an Orbitrap high-resolution mass spectrometer.
The structures of the major metabolites found in plasma, urine, and feces were also confirmed by comparisons with the synthetic reference standard M324.

Data set [3] in a line: Metabolite profiling in pooled urine (LC-MS-Radiomatic). As for the experimental part:
For each patient, urine samples from different collection intervals were pooled in proportion to their sample weight in order to obtain a pooled sample covering 90% of the TRA in urine. Pooled urine samples were lyophilized and then extracted at least twice with acetonitrile. The obtained supernatant was evaporated to dryness, and the dried residues were reconstituted in 20% acetonitrile in water containing 0.1% TFA. An aliquot of the supernatant was analyzed for TRA to determine extraction efficiency, and the mean recovery was ≈70%. Aliquots of the supernatants were injected into the HPLC coupled to UV and radioactive detectors to obtain metabolite profiles. The samples were also analyzed using LC-MS for metabolite identification.
as §1, §2

Data set [4] can be described thus: Metabolite profiling in plasma (LC-MS-TopCount). The settings on record: for Amount detected in plasma: Hamilton AUC0-24h pooled plasma. As for the experimental part:
Plasma samples from six patients were pooled using two methods: (1) A Hamilton pool plasma (0–24 h) for metabolite profile determination was prepared by combining plasma aliquots of a volume proportional to the time interval used for calculating the AUC (AUC0-24h pool) for each patient and (2) four time-point pooling samples were obtained by equal volume pool at 1, 4, 8, and 24 h across six patients. In addition, plasma samples at 1, 8, and 24 h were selected from three patients (Patients 03, 08, and 09) for metabolite profiles analysis to check the individual differences between patients. Samples collected after 24 h post dose were not included in the pooling due to the low radioactivity at later time points. All plasma samples (pooled and from individuals) were extracted at least two times with acetonitrile. All supernatants were evaporated to dryness, and the dried residues were reconstituted in 20% acetonitrile in water containing 0.1% TFA. The sample recovery was obtained by comparing the radioactivity concentrations before and after extraction, and the mean recovery was about 70%.
Aliquots of the supernatants were injected into the HPLC, and the HPLC elutes were collected as fractions at intervals of 30 sec per well into LumaPlate-96 DeepWell microplates (PerkinElmer). Due to the low radioactivity in each plasma sample, metabolite profiles were obtained by TopCount (PerkinElmer) analysis of HPLC elutes. The fractions were dried at room temperature, and then analyzed by a TopCount NXT radiometric microplate reader (PerkinElmer) to obtain metabolite profiles. The supernatants of extracts were also analyzed using an LC-MS method to identify metabolites.
as §1, §2

[5] abbreviates: 0-24 h pooled plasma, N = 6, mean ± SD.

Each structure is given as a SMILES string. Several values for one entry are separate records, joined by “and”; a condition that tells them apart may be missing. Identical values can stand only once.

In the case of `NC(=O)c1ccc(-c2[nH]c3cc(F)cc4c3c2CCNC4=O)cc1` [M323], the “Amount detected in feces” value in data set [1] was “trace amounts”. Moreover, the “Matrix in which identified” value in data set [2] was “P, U, F”. In addition, the “Amount observed in urine” value in data set [3] (pooled urine) was “small to trace amounts”. The “Amount detected in plasma” value in data set [4] is reported as “small or trace amounts”.

For the compound `O=C(O)c1ccc(-c2[nH]c3cc(F)cc4c3c2CCNC4=O)cc1` [M324], in data set [1] (Patient 01), the “% of dose in pooled fecal homogenate, Patient 01” value worked out at 6.39 % dose. In addition, in data set [1] (Patient 03), the “% of dose in pooled fecal homogenate, Patient 03” value was determined as 7.82 % dose. In data set [1] (Patient 05), the “% of dose in pooled fecal homogenate, Patient 05” value is 3.33 % dose. The “% of dose in pooled fecal homogenate, Patient 06” value in data set [1] (Patient 06) was 2.22 % dose. Besides, in data set [1] (Patient 08), the “% of dose in pooled fecal homogenate, Patient 08” value was 0.00 % dose. The “% of dose in pooled fecal homogenate, Patient 09” value in data set [1] (Patient 09) is reported as 0.00 % dose. In data set [1] (pooled fecal homogenate covering >90% of fecal excretion, N = 6, mean ± SD), the “% Peak (of TRA) in feces” value is recorded as 5.07 ± 4.95%. The “% Dose in feces” value in data set [1] (pooled fecal homogenate, % of administered dose, N = 6, mean ± SD) is 3.3% and 3.29 ± 3.25%. In addition, in data set [2], the “Matrix in which identified” value was “P, U, F”. Besides, in data set [3] (Patient 01), the “% of dose in pooled urine, Patient 01” value is recorded as 6.17 % dose. In addition, in data set [3] (Patient 03), the “% of dose in pooled urine, Patient 03” value is recorded as 7.24 % dose. The “% of dose in pooled urine, Patient 05” value in data set [3] (Patient 05) was determined as 7.22 % dose. Besides, in data set [3] (Patient 06), the “% of dose in pooled urine, Patient 06” value was 8.54 % dose. Besides, the “% of dose in pooled urine, Patient 08” value in data set [3] (Patient 08) is on record as 6 % dose. In addition, the “% of dose in pooled urine, Patient 09” value in data set [3] (Patient 09) worked out at 10.3 % dose. In data set [3] (pooled urine covering 90% of urine radioactivity, N = 6, mean ± SD), the “% Peak (of TRA) in urine” value turned out to be 50.0 ± 15.5%. Further, the “% Dose in urine” value in data set [3] (pooled urine, % of administered dose, N = 6, mean ± SD) was found to be 7.58 ± 1.61%. In addition, in data set [4] (setting [5]), the “% Peak (of plasma radioactivity), Hamilton (AUC0-24h) pooled plasma” value was determined as 18.6 ± 10.8% and the “Concentration, Hamilton (AUC0-24h) pooled plasma” value came out at 94.0 ± 62.7 ng Eq/mL. Further, in data set [4] (Hamilton 0-24 h pooled plasma), the “M324 as percentage of unchanged rucaparib exposure in 24-h pooled plasma” value amounted to 30.3%. The “% Radioactive peaks in individual plasma, Patient 03, 1 h” value in data set [4] (Patient 03, 1 h) turned out to be 15.4%. Further, the “% Radioactive peaks in individual plasma, Patient 03, 8 h” value in data set [4] (Patient 03, 8 h) stood at 33.3%. For the same compound, in data set [4] (Patient 03, 24 h), the “% Radioactive peaks in individual plasma, Patient 03, 24 h” value stood at 63.9%. In addition, the “% Radioactive peaks in individual plasma, Patient 08, 1 h” value in data set [4] (Patient 08, 1 h) is 7.94%. Further, in data set [4] (Patient 08, 8 h), the “% Radioactive peaks in individual plasma, Patient 08, 8 h” value turned out to be 20%. In addition, the “% Radioactive peaks in individual plasma, Patient 08, 24 h” value in data set [4] (Patient 08, 24 h) is given as 61.5%. The “% Radioactive peaks in individual plasma, Patient 09, 1 h” value in data set [4] (Patient 09, 1 h) is listed as 15.4%. Also, in data set [4] (Patient 09, 8 h), the “% Radioactive peaks in individual plasma, Patient 09, 8 h” value worked out at 17.9%. The “% Radioactive peaks in individual plasma, Patient 09, 24 h” value in data set [4] (Patient 09, 24 h) is recorded as 36.2%. Also, in data set [4] (Patients 03, 08, 09, 1 h), the “% Radioactive peaks in individual plasma, Mean ± SD, 1 h” value is reported as 12.9 ± 4.31%. For the same compound, in data set [4] (Patients 03, 08, 09, 8 h), the “% Radioactive peaks in individual plasma, Mean ± SD, 8 h” value stood at 23.7 ± 8.35%. Also, in data set [4] (Patients 03, 08, 09, 24 h), the “% Radioactive peaks in individual plasma, Mean ± SD, 24 h” value was 53.9 ± 15.3%. For the same compound, the “AUC0-24h, Hamilton (AUC0-24h) pooled plasma” value in data set [4] (concentration in 0-24-h pooled sample × 24 h) turned out to be 2260 ng Eq h/mL. The concentration at 1 h in data set [4] (human, plasma, oral, 600 mg, single pooled sample from all six patients, 1 h, read-out: Mean concentration, time point pooled plasma, 1 h) was determined as 31.1 ng/mL. Moreover, the concentration at 4 h in data set [4] (human, plasma, oral, 600 mg, single pooled sample from all six patients, 4 h, read-out: Mean concentration, time point pooled plasma, 4 h) is 265 ng/mL. Moreover, the concentration at 8 h in data set [4] (human, plasma, oral, 600 mg, single pooled sample from all six patients, 8 h, read-out: Mean concentration, time point pooled plasma, 8 h) was 105 ng/mL. In addition, the concentration at 24 h in data set [4] (human, plasma, oral, 600 mg, single pooled sample from all six patients, 24 h, read-out: Mean concentration, time point pooled plasma, 24 h) amounted to 239 ng/mL. For the same compound, the “Mean AUC0-24h, time point pooled plasma” value in data set [4] (trapezoidal method from 1, 4, 8, 24 h pools) came to 3960 ng Eq h/mL.

As for `NCc1ccc(-c2[nH]c3cc(F)cc4c3c2CCNC4=O)cc1` [M309], the “Amount detected in feces” value in data set [1] is on record as “trace amounts”. For the same compound, in data set [2], the “Matrix in which identified” value was “P, U, F”. Moreover, the “Amount observed in urine” value in data set [3] (pooled urine) is “small to trace amounts”. In addition, in data set [4], the “Amount detected in plasma” value is “small or trace amounts”.

For `O=CNCc1ccc(-c2[nH]c3cc(F)cc4c3c2CCNC4=O)cc1` [M337b], the “Amount detected in feces” value in data set [1] is “trace amounts”. For the same compound, the “Matrix in which identified” value in data set [2] is given as “P, U, F”. In addition, the “Amount observed in urine” value in data set [3] (pooled urine) is “small to trace amounts”. Also, in data set [4], the “Amount detected in plasma” value was “small or trace amounts”.
